Where two headings read alike, the source gives them in different places.
Legend:
Type in all cases: biochemical
Odc1p [1] = target: T1, Odc1p (Saccharomyces cerevisiae, UniProt Q03028); assay: Dependence on internal substrate of [14C]oxoglutarate uptake into proteoliposomes reconstituted with recombinant Odc1p; details: for [14C]oxoglutarate transport: proteoliposomes preloaded with 20 mM internal substrate, 0.6 mM [14C]oxoglutarate, 45 seconds
T1 construct: made in house; host or cells: S. cerevisiae odc1Δodc2Δ (YPH499 background) carrying pYES2-based pODC1; purified from mitochondria on Ni-NTA agarose
T1 sequence (Q03028 1-310): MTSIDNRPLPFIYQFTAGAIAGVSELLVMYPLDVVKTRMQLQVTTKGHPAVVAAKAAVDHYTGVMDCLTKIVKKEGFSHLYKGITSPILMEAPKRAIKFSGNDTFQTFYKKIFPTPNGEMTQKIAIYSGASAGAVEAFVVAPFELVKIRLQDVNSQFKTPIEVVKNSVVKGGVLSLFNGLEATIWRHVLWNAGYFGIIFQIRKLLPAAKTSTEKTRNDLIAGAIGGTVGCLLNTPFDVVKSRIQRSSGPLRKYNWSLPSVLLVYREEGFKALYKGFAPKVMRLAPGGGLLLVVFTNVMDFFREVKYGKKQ
Protocol: (§1) Reconstitution of the ODC proteins into liposomes—Purified ODC proteins were reconstituted by cyclic removal of the detergent with a hydrophobic column (13). The composition of the initial mixture used for reconstitution was: 200 μl of purified isoform (0.3-0.4 μg of protein), 70 μl of 10% Triton X-114, 100 μl of 10% phospholipids in the form of sonicated liposomes, 20 mM oxoglutarate (except where otherwise indicated), 10 mM Pipes (pH 7.0), 0.7 mg of cardiolipin (Sigma) and water to a final volume of 700 μl. These components were mixed thoroughly, and the mixture was recycled 13 times through an Amberlite column (Supelco) (3.0 cm×0.5 cm) preequilibrated with a buffer containing 10 mM Pipes (pH 7.0) and with the substrate at the same concentration as in the starting mixture. All operations were performed at 4° C., except the passages through Amberlite, which were carried out at room temperature.
(§2) External substrate was removed from proteoliposomes on a Sephadex G-75 column preequilibrated with buffer F (50 mM NaCl and 10 mM PIPES, pH 7.0). Transport at 25° C. was started by adding [^14C]oxoglutarate (unless otherwise indicated) to the proteoliposomes, and terminated by addition of 30 mM pyridoxal 5′-phosphate and 10 mM bathophenanthroline (the “inhibitor-stop” method (13)). In controls, inhibitors were added with the labelled substrate. The external radioactivity was removed on Sephadex G-75 and the internal radioactivity was measured. […] The initial rate of transport was calculated in mmol/min per g protein from the time course of isotope equilibration (13). Various other transport activities were also assayed by the inhibitor-stop method. For efflux measurements, the internal substrate pool of the proteoliposomes was made radioactive by carrier-mediated exchange equilibration (13) with 0.1 mM [^14C]oxoglutarate added at high specific radioactivity. After 60 min, the residual external radioactivity was removed by passing the proteoliposomes again through a column of Sephadex G-75. Efflux was started by adding unlabelled external substrate or buffer F alone and terminated by adding the inhibitors indicated above.
(§3) The substrate specificity of purified Odc1p and Odc2p was investigated further by measuring the uptake of [^14C]oxoglutarate into proteoliposomes which had been preloaded with various substrates.
(§4) Proteoliposomes were preloaded internally with various substrates (concentration, 20 mM). Transport was started by adding [^14C]oxoglutarate (final concentration, 0.6 mM) and terminated after 45 seconds.

Odc2p [2] = target: T2, Odc2p (Saccharomyces cerevisiae, UniProt Q99297); assay: Dependence on internal substrate of [14C]oxoglutarate uptake into proteoliposomes reconstituted with recombinant Odc2p; details: for [14C]oxoglutarate transport: proteoliposomes preloaded with 20 mM internal substrate, 0.6 mM [14C]oxoglutarate, 45 seconds
T2 construct: made in house; host or cells: S. cerevisiae odc1Δodc2Δ (YPH499 background) carrying pYES2-based pODC2; purified from mitochondria on Ni-NTA agarose
T2 sequence (Q99297 1-307): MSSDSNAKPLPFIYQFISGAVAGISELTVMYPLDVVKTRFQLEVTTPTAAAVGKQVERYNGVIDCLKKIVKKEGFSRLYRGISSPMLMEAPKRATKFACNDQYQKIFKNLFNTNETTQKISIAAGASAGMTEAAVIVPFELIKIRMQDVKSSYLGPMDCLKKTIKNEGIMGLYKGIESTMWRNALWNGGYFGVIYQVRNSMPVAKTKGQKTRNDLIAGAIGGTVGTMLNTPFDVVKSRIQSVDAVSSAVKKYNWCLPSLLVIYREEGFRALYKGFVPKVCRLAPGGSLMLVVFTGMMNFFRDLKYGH
Protocol: as §1, §2, §3, §4

Odc1p [3] = target: T1, Odc1p; assay: Effect of inhibitors and external compounds on the [14C]oxoglutarate/oxoglutarate exchange by proteoliposomes reconstituted with Odc1p; details: for effect of oxomonocarboxylates on the rate of uptake of 0.4 mM oxoglutarate (in words): 8 mM, 20 times greater than the substrate, data not shown
Protocol: FIG. 5. Effect of dicarboxylates and 2-oxodicarboxylates with different carbon chain length on the rate of [^14C]oxoglutarate uptake into proteoliposomes reconstituted with recombinant Odc1p. Proteoliposomes were preloaded with 20 mM oxoglutarate and reconstituted with recombinant Odc1p. Transport was initiated by the addition of 0.4 mM [^14C]oxoglutarate and terminated after 45 seconds. Oxalate, malonate, succinate, glutarate, adipate, pimelate, suberate (▪) and the corresponding 2-oxoacids (●) were added simultaneously with [1^4C]oxoglutarate at 4.0 mM concentration.
as §1, §2
(§5) In addition, the ability of non-radioactive potential substrates to inhibit the oxoglutarate/oxoglutarate exchange was examined.
Proteoliposomes were preloaded internally with 20 mM oxoglutarate and transport was initiated by the addition of 0.4 mM [^14C]oxoglutarate.

Odc2p [4] = target: T2, Odc2p; assay: Effect of inhibitors and external compounds on the [14C]oxoglutarate/oxoglutarate exchange by proteoliposomes reconstituted with Odc2p; details: for effect of oxomonocarboxylates on the rate of uptake of 0.4 mM oxoglutarate (in words): 8 mM, 20 times greater than the substrate
Protocol: as §1, §2, §5
Proteoliposomes were preloaded internally with 20 mM oxoglutarate and transport was initiated by the addition of 0.4 mM [^14C]oxoglutarate. The incubation time was 45 seconds. Thiol reagents and α-cyanocinnamate were added 2 min before the labelled substrate; the other inhibitors and external substrates were added together with [^14C]oxoglutarate. The final concentration of the inhibitors was 4 mM, except for mercurials (10 μM), carboxyatractyloside (0.1 mM), N-ethylmaleimide and α-cyanocinnamate (2 mM).

Odc1p [5] = target: T1, Odc1p; assay: Homoexchange of other substrates in proteoliposomes reconstituted with Odc1p; details: internal concentration 10 mM, external concentration 1 mM
Protocol: as §2
(§6) In order to obtain further information about the mechanism of transport catalyzed by Odc1p and Odc2p, the efflux of [^14C]oxoglutarate from pre-labelled active proteoliposomes was investigated as it provides a more convenient assay for unidirectional transport (13).

Odc2p [6] = target: T2, Odc2p; assay: Homoexchange of other substrates in proteoliposomes reconstituted with Odc2p; details: internal concentration 10 mM, external concentration 1 mM
Protocol: as §2, §6

[7] = Odc1p, proteoliposomes preloaded with various substrates
[8] = Odc2p, proteoliposomes preloaded with various substrates
[9] = Odc1p, added with 0.4 mM [14C]oxoglutarate, 4.0 mM in FIG. 5, partly data not shown

| Compound | [14C]oxoglutarate uptake with the internal substrate (in words) (Odc1p [1]; [7]) | [14C]oxoglutarate uptake with the internal substrate (in words) (Odc2p [2]; [8]) | [14C]oxoglutarate transport (Odc1p [1]; Odc1p) [mmol/min per g protein] | [14C]oxoglutarate transport (Odc2p [2]; Odc2p) [mmol/min per g protein] | further results |
| --- | --- | --- | --- | --- | --- |
| O=C(O)C(=O)O [oxalate] | no exchange | no exchange |  |  | effect of non-radioactive potential substrates on the rate of oxoglutarate uptake (in words) (Odc1p [3]; [9]): virtually no effect; effect of non-radioactive potential substrates on the rate of oxoglutarate uptake (in words) (Odc2p [4]; Odc2p, data not shown): virtually no effect |
| O=C(O)CC(=O)O [Malonate] | very low activity | very low activity | 4.8 | 2.2 | effect of non-radioactive potential substrates on the rate of oxoglutarate uptake (in words) (Odc1p [3]; [9]): virtually no effect; effect of non-radioactive potential substrates on the rate of oxoglutarate uptake (in words) (Odc2p [4]; Odc2p, data not shown): virtually no effect |
| O=C(O)CCCCCC(=O)O [Pimelate] | taken up efficiently | taken up efficiently | 48.4 | 10.4 | effect of non-radioactive potential substrates on the rate of oxoglutarate uptake (in words) (Odc1p [3]): significant inhibition; effect of non-radioactive potential substrates on the rate of oxoglutarate uptake (in words) (Odc2p [4]): significant inhibition |
| C[N+](C)(C)CC(O)CC(=O)[O-] (stereo not shown) [carnitine] | no exchange | no exchange |  |  | homoexchange catalyzed by the proteoliposomes (in words) (Odc1p [5]): did not catalyze homoexchanges; homoexchange catalyzed by the proteoliposomes (in words) (Odc2p [6]): did not catalyze homoexchanges |
| phosphate | no exchange | no exchange |  |  | homoexchange catalyzed by the proteoliposomes (in words) (Odc1p [5]): did not catalyze homoexchanges; homoexchange catalyzed by the proteoliposomes (in words) (Odc2p [6]): did not catalyze homoexchanges |
| NC(CCCCC(=O)O)C(=O)O (stereo not shown) [2-aminopimelate] | no exchange | no exchange |  |  |  |
| O=C(O)/C=C/C(=O)O [Fumarate] | very low activity | very low activity | 8.9 | 2.4 | effect of non-radioactive potential substrates on the rate of oxoglutarate uptake (in words) (Odc1p [3]; [9]): no effect; effect of non-radioactive potential substrates on the rate of oxoglutarate uptake (in words) (Odc2p [4]; Odc2p, data not shown): no effect |
| NCCC[C@H](N)C(=O)O [ornithine] |  |  |  |  | homoexchange catalyzed by the proteoliposomes (in words) (Odc1p [5]): did not catalyze homoexchanges; homoexchange catalyzed by the proteoliposomes (in words) (Odc2p [6]): did not catalyze homoexchanges |
| CCC(=O)C(=O)O [2-oxobutyrate] | no exchange | no exchange |  |  | effect of oxomonocarboxylates on the rate of uptake of 0.4 mM oxoglutarate (in words) (Odc1p [3]; Odc1p): did not influence; effect of oxomonocarboxylates on the rate of uptake of 0.4 mM oxoglutarate (in words) (Odc2p [4]; Odc2p, data not shown): did not influence |
| N[C@@H](CCC(=O)O)C(=O)O [glutamate] | no exchange | no exchange |  |  | homoexchange catalyzed by the proteoliposomes (in words) (Odc1p [5]): did not catalyze homoexchanges; homoexchange catalyzed by the proteoliposomes (in words) (Odc2p [6]): did not catalyze homoexchanges |
| O=C(O)CCCCCCC(=O)O [Suberate] | very low activity | very low activity | 2.8 | 0.4 | effect of non-radioactive potential substrates on the rate of oxoglutarate uptake (in words) (Odc1p [3]): virtually no effect; effect of non-radioactive potential substrates on the rate of oxoglutarate uptake (in words) (Odc2p [4]): virtually no effect |
| O=C(O)CCCCC(=O)O [Adipate] | taken up efficiently | taken up efficiently | 65.0 | 16.7 | effect of non-radioactive potential substrates on the rate of oxoglutarate uptake (in words) (Odc1p [3]): significant inhibition; effect of non-radioactive potential substrates on the rate of oxoglutarate uptake (in words) (Odc2p [4]): significant inhibition |
| O=C(O)/C=C\C(=O)O [Maleate] | very low activity | very low activity | 7.1 | 2.6 | effect of non-radioactive potential substrates on the rate of oxoglutarate uptake (in words) (Odc1p [3]; [9]): no effect; effect of non-radioactive potential substrates on the rate of oxoglutarate uptake (in words) (Odc2p [4]; Odc2p, data not shown): no effect |
| Nc1ncnc2c1ncn2[C@@H]1O[C@H](COP(=O)(O)OP(=O)(O)OP(=O)(O)O)[C@@H](O)[C@H]1O [ATP] | no exchange | no exchange |  |  |  |
| CCCC(=O)C(=O)O [2-oxovalerate] | no exchange | no exchange |  |  | effect of oxomonocarboxylates on the rate of uptake of 0.4 mM oxoglutarate (in words) (Odc1p [3]; Odc1p): did not influence; effect of oxomonocarboxylates on the rate of uptake of 0.4 mM oxoglutarate (in words) (Odc2p [4]; Odc2p, data not shown): did not influence |
| CC[C@H](O)C(=O)O [2-hydroxybutyrate] | no exchange | no exchange |  |  |  |
| NC(CCCC(=O)O)C(=O)O (stereo not shown) [2-aminoadipate] | no exchange | no exchange |  |  |  |
| O=S(O)(O)=S [thiosulfate] |  |  |  |  | [14C]oxoglutarate uptake with the internal substrate (in words) (Odc1p [1]): no exchange; [14C]oxoglutarate uptake with the internal substrate (in words) (Odc2p [2]): no exchange |
| O=C(O)C[C@@H](O)C(=O)O [D-malate] | taken up efficiently | taken up efficiently | 52.1 | 10.5 |  |

Reference: US20020155192A1, “Yeast transport isoforms” (priority 2000, published 2002)
